Experimental data: patent US20240374763A1, “DIAGNOSIS AND MONITORING USING EXTRADOMAIN-B FIBRONECTIN TARGETED PROBES” (Case Western Reserve University, priority 2020, published 2024)
No end group written: not given here.

Assays:
DLD1-DR tumors = experiment: MRMI of EDB-FN with MT218, DLD1-DR xenografts; type: in vivo, mice
Protocol: Nude athymic mice (6-week-old nu/nu females) were purchased from The Jackson Laboratory (Bar Harbor, […]) and housed in the Animal Facility at CWRU. All the animal experiments were performed according to the protocol approved by the IACUC of CWRU. For assessment of drug resistance, 2 drug-resistant and 2 non-drug-resistant models were set up. About 3-4×10^6 DLD-1, RKO, DLD1-DR, and RKO-DR cells suspended in Matrigel-PBS mixture (1:1) were subcutaneously injected in the left flanks of nude mice (100 μL per mouse, 5 mice per group×4 models=20 mice). After 9 days when the tumors reached 100-200 mm3, MRMI was performed on the 4 xenograft models with 40 μmol/kg dose of MT218. The animals were then euthanized, and the tumors were harvested for post-mortem histology and IHC.
MT218 was synthesized as previously described. Ayat, N. R., et al., ACS Med Chem Lett, 2018. 9(7): p. 730-735. Briefly, click reaction between alkynyl-ZD2 and N3-Gd(HP-DO3A) was performed in the presence of CuSO4 and ascorbate at room temperature, followed by FLASH chromatography purification and validation of MT218 by MALDI-TOF mass spectrometry (m.w. 1443). For assessment of drug resistance and therapeutic monitoring, MRMI was performed in a 3T MRS 3000 scanner (MR Solutions, Surrey, UK) with a mouse short quad coil. The mice were anesthetized with isofluorane and tail vein catheter was setup. T1-weighted MR images were obtained before (pre-contrast) and 25 min after injection (post-contrast) of 40 μmol/kg dose of MT218 [ZD2-N3—Gd(HP-DO3A)]. The following two sequences were used with respiratory gating: axial fast spin echo (FSE) (TR=305 ms, TE=11 ms, FA=90°, FOV=40 mm×40 mm, slice thickness=1 mm, slice number=15, Nav=2, matrix=256×256) and coronal FSE (TR=305 ms, TE=11 ms, FA=90°, FOV=90 mm×90 mm, slice thickness=1 mm, slice number=20, Nav=1, matrix=248×512). […] Contrast-to-noise ratios (CNRs) were calculated as (mean tumor intensity—mean muscle intensity)/standard deviation of noise. […]

C4-2 tumors = experiment: MRMI with MT218, C4-2 xenografts; type: in vivo, mice; conditions: 0.04 mmol Gd/kg, 20 min post-injection
Source text: Xenograft models were established by subcutaneous flank injections in athymic nu/nu mice for the 4 prostate cancer cells and tested with MRMI using 0.04 mmol Gd/kg of MT218.

[1] = DLD1-DR over DLD-1 tumors, 40 μmol/kg MT218

In the case of “ZD2-N3-Gd(HP-DO3A) (TVRTSAD; also: conjugated to Gd(HP-DO3A) by click reaction of alkynyl-ZD2 with N3-Gd(HP-DO3A), residue of attachment not given here, Gd complex) [MT218, EDB-FN-targeted MRI contrast agent; ZD2 peptide conjugated to the clinical macrocyclic agent Gd(HP-DO3A)]”, the “higher CNRs over the non-resistant tumors” value (DLD1-DR tumors; [1]) is reported as 2.2 fold, the “increase in CNR over the non-resistant tumors” value (DLD1-DR tumors; [1]) is reported as 120% and the “higher CNRs over pre-contrast” value (DLD1-DR tumors; DLD1-DR tumors, 40 μmol/kg MT218, 25 min post-injection) is reported as 3.3 fold. For the same substance, the “increase of CNR” value (C4-2 tumors) was roughly 3 fold.
